Consider eleven molecules from ChEMBL document CHEMBL1201862, “PubChem BioAssay data set” (2004).

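Dose response: 5 concentrations. Exposure: 48 h. Format: 96-well plates. Endpoint: linear interpolation; highest concentration if not reached. The concentration for 50% growth inhibition is given as GI50.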 The source made the active and inactive calls. Rule as the data show it: active = GI50 up to about 1.1 µM and inactive = higher.

Holding throughout (assay): growth of human tumour cells (NCI), 48 h
The test system of test [1] is SR.
Test [2] deals with UACC-62.
The subject of test [3] is HT-29.
Test [4] concerns NCI-H460.
In test [5] the test system is A549.
In test [6] the test system is SN12C.
In test [7] the test system is HCT-116.
Test [8] has as its system M14.
For test [9], the system named is SK-MEL-2.
For test [10], the system named is SK-OV-3.
Test [11] relates to CCRF-CEM.
Test [12] deals with RXF 393.
For test [13], the system named is MDA-MB-435.
The test system of test [14] is SF-539.
The subject of test [15] is K562.
The subject of test [16] is EKVX.
Test [17] concerns HOP-62.
Test [18] concerns Hs-578T.
The subject of test [19] is Malme-3M.

Consider `COC(=O)c1ccccc1C1=C([N+](=O)[O-])C(c2ccccc2)C(C#N)=C(N)O1` (configuration not stated), for which the GI50 is 36.3 µM (inactive) in [1]; 30.7 µM (inactive) in test [2]; 96.6 µM (inactive) in test [3]; > 100 µM (inactive) in test [4]; > 100 µM (inactive) in test [5]; > 100 µM (inactive) in [6]. For the same molecule, the GI50 is > 100 µM (inactive) in [7]; > 100 µM (inactive) in [8]; > 100 µM (inactive) in [9]; > 100 µM (inactive) in test [10]; 30.1 µM (inactive) in test [11]; 30.2 µM (inactive) in [12]. Moreover, the GI50 is 72.8 µM (inactive) in [13]; > 100 µM (inactive) in test [14]; 33.7 µM (inactive) in [15]; 10.5 µM (inactive) in test [16]; > 100 µM (inactive) in [17]; 18.1 µM (inactive) in test [18].
`CC1=C(C)C(=O)O[C@@H]([C@](C)(O)[C@]2(O)CC[C@@]3(O)[C@@H]4C[C@H](O)[C@]5(O)[C@@H](O)C=CC(=O)[C@]5(C)[C@H]4CC[C@]23C)C1`: the GI50 in test [1] is 31.3 µM (inactive); in [2], 47.6 µM (inactive); in test [3], 86.3 µM (inactive); in test [4], > 100 µM (inactive); in test [5], > 100 µM (inactive); in [6] it was > 100 µM (inactive). In addition, the GI50 in [7] is 86.9 µM (inactive); in test [8], > 100 µM (inactive); in test [9], > 100 µM (inactive); in test [10], > 100 µM (inactive); in [19] it was > 100 µM (inactive); in test [11] it was 28.4 µM (inactive). The GI50 in test [12] is > 100 µM (inactive); in test [13], 87.9 µM (inactive); in test [14], > 100 µM (inactive); in [15], 67.3 µM (inactive); in [16], > 100 µM (inactive); in test [17] it was > 100 µM (inactive). The GI50 in [18] is > 100 µM (inactive).
For the molecule `O=C1CCc2cc3c(cc21)CC1(Cc2ccccc2C1)C3`, the GI50 in test [1] was 1.86 µM (inactive); in test [2] it was 21.1 µM (inactive); in [3] it was 3.14 µM (inactive); in test [4], 6.31 µM (inactive); in [5], 12 µM (inactive); in test [6] it was 19.9 µM (inactive). For the same molecule, the GI50 in [7] was 4.08 µM (inactive); in test [8], 14.9 µM (inactive); in test [9], 2.11 µM (inactive); in test [10] it was 14 µM (inactive); in [19], 16.8 µM (inactive); in [11] it was 2.98 µM (inactive). The GI50 in test [12] was 33 µM (inactive); in [13] it was 2.58 µM (inactive); in [14], 9.12 µM (inactive); in test [15] it was 2.09 µM (inactive); in test [16] it was > 27.3 µM (inactive); in test [17] it was 9.73 µM (inactive). Also, in [18], the GI50 was 52.1 µM (inactive).
For the molecule `c1ccc(-c2cc(-c3ccncc3)cc(-c3ccncc3)n2)cc1`, the GI50 in test [1], in [2], in test [3], in test [5], in test [6] and in [7] was > 100 µM (inactive) each time. In addition, the GI50 in [8] is > 100 µM (inactive); in [9] it was > 100 µM (inactive); in test [10] it was 80.7 µM (inactive); in [19], > 100 µM (inactive); in [11] it was > 100 µM (inactive); in test [12], > 100 µM (inactive). The GI50 is > 100 µM (inactive) in test [13]; > 100 µM (inactive) in [15]; > 100 µM (inactive) in [16]; 33.3 µM (inactive) in test [17]; 38.5 µM (inactive) in test [18].
For the molecule `O=c1[nH][nH]c(=O)n1CCCCCCn1c(=O)[nH][nH]c1=O`, the GI50 in test [1], in [2], in test [3], in [4], in test [5] and in test [6] was > 100 µM (inactive) throughout. Besides, the GI50 in test [7], in [8], in test [9], in [10], in [19] and in test [11] was > 100 µM (inactive) throughout. For the same molecule, the GI50 in test [12], in [13], in test [14], in test [15], in test [16] and in test [18] was > 100 µM (inactive) in each case.
Regarding `N#Cc1c(-c2ccco2)c2c(n(C3OC(CO)C(O)C(O)C3O)c1=S)CCCC2` (configuration not stated), the GI50 in [1], in [2], in test [3], in [4], in test [5] and in test [6] was > 100 µM (inactive) throughout. Besides, the GI50 in test [7], in test [8], in test [9], in [10], in test [19] and in test [11] was > 100 µM (inactive) in each case. Moreover, the GI50 in test [12], in [13], in test [14], in test [16], in [17] and in [18] was > 100 µM (inactive) throughout.
For `COC(=O)CNC(=O)C(CSC(=O)OCC1c2ccccc2-c2ccccc21)NC(=O)CCC(NC(=O)OCC1c2ccccc2-c2ccccc21)C(=O)OC` (configuration not stated), the GI50 in test [1] is 12.6 µM (inactive); in test [4], 24.4 µM (inactive); in [5], 14.5 µM (inactive); in [6] it was > 100 µM (inactive); in test [7] it was 17.5 µM (inactive); in test [8] it was 24 µM (inactive). Moreover, the GI50 in test [9] was 16.9 µM (inactive); in test [10] it was 30.3 µM (inactive); in test [19], 25.7 µM (inactive); in test [11] it was 14 µM (inactive); in test [12], 16.8 µM (inactive); in [13], 25.7 µM (inactive). Besides, the GI50 in [14] was 19.2 µM (inactive); in test [15] it was 28.7 µM (inactive); in test [16] it was 54.3 µM (inactive); in test [17], 21.1 µM (inactive); in [18] it was 28.4 µM (inactive).
Turning to `CCOC(=O)c1ccc(/N=C/C=C(\Nc2ccc(C(=O)OCC)cc2)c2ccc3ccccc3c2)cc1`, the GI50 in test [1] was 20.3 µM (inactive); in [2], 14 µM (inactive); in [3], 18.4 µM (inactive); in test [4] it was 25.8 µM (inactive); in [5], 34.5 µM (inactive); in [6], 26.7 µM (inactive). Further, the GI50 in [7] is 31.4 µM (inactive); in test [8] it was 23.7 µM (inactive); in test [9], 23.5 µM (inactive); in [10] it was 30.2 µM (inactive); in test [19], 20.5 µM (inactive); in [11] it was 17.9 µM (inactive). Moreover, the GI50 in [12] was 21.1 µM (inactive); in [13], 16.2 µM (inactive); in test [14] it was 20.2 µM (inactive); in test [15], 13.3 µM (inactive); in test [17] it was 30.8 µM (inactive); in test [18] it was 31.1 µM (inactive).
For the molecule `O=C(C[n+]1ccccc1)N/N=C(\Cc1nc2ccc([N+](=O)[O-])cc2nc1O)C(=O)Nc1cc(Cl)c(Cl)cc1Cl`, the GI50 in test [1] was > 100 µM (inactive); in [2] it was > 100 µM (inactive); in test [3], > 100 µM (inactive); in [4], 87.9 µM (inactive); in test [5], > 100 µM (inactive); in test [6], > 100 µM (inactive). Further, the GI50 in [7], in test [8], in test [9], in [10], in [19] and in test [11] was > 100 µM (inactive) throughout. Besides, the GI50 in [12], in [13], in test [14], in [15], in [16] and in test [18] was > 100 µM (inactive) throughout.
On to `O=c1c2c3c(sc2nc2n1N=CN(c1ccccc1)C2)CCCC3`, for which the GI50 in test [1], in [2], in test [3], in test [4], in test [5] and in test [6] was > 100 µM (inactive) each time. In addition, the GI50 in test [7], in [8], in test [9], in test [10], in test [19] and in test [11] was > 100 µM (inactive) throughout. Moreover, the GI50 in test [12], in test [13], in test [15], in test [16], in test [17] and in test [18] was > 100 µM (inactive) each time.
On to `OC(COC(c1ccccc1)(c1ccccc1)c1ccccc1)C(O)CC1SCCS1` (configuration not stated), for which the GI50 was 0.0275 µM (active) in [1]; 17.1 µM (inactive) in [2]; 12.4 µM (inactive) in test [3]; 17.7 µM (inactive) in [6]; 16.4 µM (inactive) in test [7]; 29.6 µM (inactive) in test [8]. For the same molecule, the GI50 was 11.5 µM (inactive) in test [9]; 19 µM (inactive) in [10]; 10 µM (inactive) in test [19]; 21.3 µM (inactive) in test [11]; 10.2 µM (inactive) in test [12]; 26.2 µM (inactive) in test [13]. Besides, the GI50 was 18.7 µM (inactive) in [14]; 13.5 µM (inactive) in [15]; 11.2 µM (inactive) in test [16]; 12 µM (inactive) in test [17]; 12.2 µM (inactive) in test [18].
